Measurements: patent US12064426B2, “Selective inhibitors of ROCK1 and ROCK2 protein kinases and uses thereof” (GENOSCO Inc., priority 2021, dated 2024)

Columns and labels:
[1] = molecular target: T1, Recombinant ROCK2 (amino acids 5-554) (Homo sapiens, UniProt O75116); assay: ROCK inhibition assay, LANCE Ultra TR-FRET kinase assay (ROCK2); type: biochemical; details: 4 μM ATP, 50 nM ULight-CREBtide substrate
T1 construct: ROCK2 (amino acids 5-554); by word order, ROCK2 from SignalChem
Experimental: (§1) Kinase IC50 was determined through an in vitro assay based on LANCE Ultra TR-FRET (Time-Resolved Fluorescence Resonance Energy Transfer) homogeneous technologies method (Perkin Elmer). Recombinant ROCK1 (amino acids 1-477) and ROCK2 (amino acids 5-554) proteins were purchased from Carna Biosciences and SignalChem. Compound activities were measured by Envision and IC50s were calculated. The assays were performed in white LUMITRAC™ 200 96 well half-area microplates from Greiner Bio-One. The kinase reaction buffer consisted of 50 mM HEPES pH 7.5, 1 mM EGTA, 10 mM MgCl2, 2 mM DTT and 0.01% Tween-20. Kinases were incubated with 50 nM (ULight-CREBtide) substrate in the presence of 1 (ROCK1) or 4 (ROCK2) μM ATP. The kinase reaction was carried out for 1 hour before addition of a stopping buffer to a final of 10 mM EDTA and 0.6 nM of LANCE Ultra Europium anti-phospho-CREB (Ser133) antibody (PerkinElmer TRF0200) in LANCE detection buffer. All assay incubations were performed at room temperature, and the microplates were sealed with polyester film during that time. The reaction was incubated for 1 hour, and the signal was read in Envision in TR-FRET mode (excitation at 320 nm and emission at 615/665 nm).
(§2) As used herein, a way to describe potency of inhibitory activity (nM) is a value of inhibitory activity at 50% (IC50).

[2] = molecular target: T2, Recombinant ROCK1 (amino acids 1-477) (Homo sapiens, UniProt Q13464); assay: ROCK inhibition assay, LANCE Ultra TR-FRET kinase assay (ROCK1); type: biochemical; details: 1 μM ATP, 50 nM ULight-CREBtide substrate
T2 construct: Recombinant ROCK1 (amino acids 1-477); by word order, ROCK1 from Carna Biosciences
Experimental: as §1, §2

T2 sequence (Q13464 1-477): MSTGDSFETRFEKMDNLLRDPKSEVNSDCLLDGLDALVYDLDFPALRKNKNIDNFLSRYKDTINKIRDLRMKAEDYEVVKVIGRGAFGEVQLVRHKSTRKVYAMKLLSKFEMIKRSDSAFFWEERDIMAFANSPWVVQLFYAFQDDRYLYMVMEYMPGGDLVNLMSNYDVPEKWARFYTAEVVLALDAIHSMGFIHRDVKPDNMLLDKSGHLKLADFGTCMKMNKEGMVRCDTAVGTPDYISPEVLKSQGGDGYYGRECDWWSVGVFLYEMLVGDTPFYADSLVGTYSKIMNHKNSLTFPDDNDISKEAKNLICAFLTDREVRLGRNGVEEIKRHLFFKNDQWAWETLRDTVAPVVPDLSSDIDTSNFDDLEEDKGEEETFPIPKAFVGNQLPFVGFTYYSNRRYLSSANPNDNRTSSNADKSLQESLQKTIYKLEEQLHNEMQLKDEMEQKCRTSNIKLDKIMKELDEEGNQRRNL
T1 sequence (O75116 5-554): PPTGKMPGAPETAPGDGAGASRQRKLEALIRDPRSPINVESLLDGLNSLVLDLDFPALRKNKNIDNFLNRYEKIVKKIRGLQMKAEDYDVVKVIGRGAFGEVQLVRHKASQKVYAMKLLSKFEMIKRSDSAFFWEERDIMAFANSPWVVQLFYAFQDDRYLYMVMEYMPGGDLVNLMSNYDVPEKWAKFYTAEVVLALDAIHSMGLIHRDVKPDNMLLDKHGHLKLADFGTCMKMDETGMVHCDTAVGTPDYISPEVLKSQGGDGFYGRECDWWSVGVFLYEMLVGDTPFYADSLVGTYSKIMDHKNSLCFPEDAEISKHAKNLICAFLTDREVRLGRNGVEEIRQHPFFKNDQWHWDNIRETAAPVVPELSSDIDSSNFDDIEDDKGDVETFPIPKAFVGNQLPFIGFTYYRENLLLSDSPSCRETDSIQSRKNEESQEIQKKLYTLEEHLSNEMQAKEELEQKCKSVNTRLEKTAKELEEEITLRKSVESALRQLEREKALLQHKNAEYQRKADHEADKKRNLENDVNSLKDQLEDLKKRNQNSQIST

| IC50 [1] [nM] | IC50 [2] [nM] | Structure (SMILES) |
| --- | --- | --- |
| < 10 | 11 to 100 | Cn1nccc1-c1ccc2c(=O)n(Cc3cccc(C(=O)Nc4ccc5c(c4)CN(C4CC4)CC5)c3)ccc2c1 [Compound 126] |
| 10 to 100 | 101 to 500 | NS(=O)(=O)c1ccc(NC(=O)c2cc(F)cc(Cn3ccc4cc(-c5c[nH]nc5C(F)(F)F)ccc4c3=O)c2)cc1 [Compound 127] |
| < 10 | 11 to 100 | Cn1ccc(NC(=O)c2cc(F)cc(Cn3ccc4cc(-c5cn[nH]c5C(F)(F)F)ccc4c3=O)c2)n1 [Compound 128] |
| < 10 | 101 to 500 | O=C(NCc1ccc(F)nc1)c1cc(F)cc(Cn2ccc3cc(-c4c[nH]nc4C(F)(F)F)ccc3c2=O)c1 [Compound 129] |
| 10 to 100 | 11 to 100 | O=C(NC1CCOCC1)c1cc(F)cc(Cn2ccc3cc(-c4c[nH]nc4C(F)(F)F)ccc3c2=O)c1 [Compound 130] |
| < 10 | < 10 | O=C(NC1CCNCC1)c1cc(F)cc(Cn2ccc3cc(-c4c[nH]nc4C(F)(F)F)ccc3c2=O)c1 [Compound 131] |
| < 10 | < 10 | CN1CCC(NC(=O)c2cc(F)cc(Cn3ccc4cc(-c5c[nH]nc5C(F)(F)F)ccc4c3=O)c2)CC1 [Compound 132] |
| 10 to 100 | 101 to 500 | O=C(NC1CC1)c1cc(F)cc(Cn2ccc3cc(-c4c[nH]nc4C(F)(F)F)ccc3c2=O)c1 [Compound 133] |
| < 10 | 11 to 100 | CN1CCC(CNC(=O)c2cc(F)cc(Cn3ccc4cc(-c5c[nH]nc5C(F)(F)F)ccc4c3=O)c2)CC1 [Compound 134] |
| 10 to 100 | 101 to 500 | O=C(NCC1CCOCC1)c1cc(F)cc(Cn2ccc3cc(-c4c[nH]nc4C(F)(F)F)ccc3c2=O)c1 [Compound 135] |
| < 10 | 11 to 100 | O=C(NCC1COC1)c1cc(F)cc(Cn2ccc3cc(-c4c[nH]nc4C(F)(F)F)ccc3c2=O)c1 [Compound 136] |
| 10 to 100 | 101 to 500 | Cc1nocc1-c1ccc2c(=O)n(Cc3cc(F)cc(C(=O)N[C@H]4C[C@@H](O)C4)c3)ccc2c1 [Compound 137] |
| 10 to 100 | 101 to 500 | Cc1nocc1-c1ccc2c(=O)n(Cc3cc(F)cc(C(=O)N[C@H]4C[C@H](O)C4)c3)ccc2c1 [Compound 138] |
| 100 to 500 | 101 to 500 | Cc1nocc1-c1ccc2c(=O)n(Cc3cc(F)cc(C(=O)N[C@H]4CC[C@H](O)CC4)c3)ccc2c1 [Compound 139] |
| 100 to 500 | 101 to 500 | Cc1nocc1-c1ccc2c(=O)n(Cc3cc(F)cc(C(=O)N[C@H]4CC[C@@H](O)CC4)c3)ccc2c1 [Compound 140] |
| 100 to 500 | > 501 | CO[C@H]1CC[C@H](NC(=O)c2cc(F)cc(Cn3ccc4cc(-c5conc5C)ccc4c3=O)c2)CC1 [Compound 141] |
| 100 to 500 | > 501 | CO[C@H]1CC[C@@H](NC(=O)c2cc(F)cc(Cn3ccc4cc(-c5conc5C)ccc4c3=O)c2)CC1 [Compound 142] |
| 10 to 100 | 101 to 500 | Cc1nocc1-c1ccc2c(=O)n(Cc3cc(F)cc(C(=O)NCCN4CCOCC4)c3)ccc2c1 [Compound 143] |
| < 10 | 11 to 100 | Cc1nocc1-c1ccc2c(=O)n(Cc3cc(F)cc(C(=O)NCCN4CCN(C)CC4)c3)ccc2c1 [Compound 144] |
| 10 to 100 | 101 to 500 | Cc1nocc1-c1ccc2c(=O)n(Cc3cc(F)cc(C(=O)NCC4COC4)c3)ccc2c1 [Compound 145] |
| < 10 | 11 to 100 | Cc1nocc1-c1ccc2c(=O)n(Cc3cc(F)cc(C(=O)NCc4ccc(F)nc4)c3)ccc2c1 [Compound 147] |
| 10 to 100 | 101 to 500 | Cc1nocc1-c1ccc2c(=O)n(Cc3cc(F)cc(C(=O)NC4CCOCC4)c3)ccc2c1 [Compound 148] |
| < 10 | 11 to 100 | Cc1nocc1-c1ccc2c(=O)n(Cc3cc(F)cc(C(=O)NCC4CCN(C)CC4)c3)ccc2c1 [Compound 149] |
| < 10 | 11 to 100 | Cc1nocc1-c1ccc2c(=O)n(Cc3cc(F)cc(C(=O)NCC4CCNCC4)c3)ccc2c1 [Compound 150] |
| < 10 | 11 to 100 | Cc1nocc1-c1ccc2c(=O)n(Cc3cc(F)cc(C(=O)NCC4CCN(C5CC5)CC4)c3)ccc2c1 [Compound 151] |
| 10 to 100 | 101 to 500 | Cc1nocc1-c1ccc2c(=O)n(Cc3cc(F)cc(C(=O)NCC4CCN(C(C)C)CC4)c3)ccc2c1 [Compound 152] |
| < 10 | 101 to 500 | Cc1nocc1-c1ccc2c(=O)n(Cc3cc(F)cc(C(=O)NCC4CCN(CC(F)(F)F)CC4)c3)ccc2c1 [Compound 153] |

| IC50 [1] [nM] | IC50 [2] [nM] | Structure (SMILES) |
| --- | --- | --- |
| < 10 | 101 to 500 | Cc1nocc1-c1ccc2c(=O)n(Cc3cc(F)cc(C(=O)NCC4CCN(C5COC5)CC4)c3)ccc2c1 [Compound 154] |
| < 10 | 11 to 100 | Cc1nocc1-c1ccc2c(=O)n(Cc3cc(F)cc(C(=O)Nc4ccn(C)n4)c3)ccc2c1 [Compound 156] |
| < 10 | 11 to 100 | Cc1nocc1-c1ccc2c(=O)n(Cc3cc(F)cc(C(=O)Nc4nc5c(s4)CCNC5)c3)ccc2c1 [Compound 157] |
| < 10 | 11 to 100 | Cc1nocc1-c1ccc2c(=O)n(Cc3cc(F)cc(C(=O)Nc4nc5c(s4)CCN(C)C5)c3)ccc2c1 [Compound 158] |
| < 10 | 11 to 100 | Cc1nocc1-c1ccc2c(=O)n(Cc3cc(F)cc(C(=O)Nc4nc5c(s4)CCN(C(C)C)C5)c3)ccc2c1 [Compound 159] |
| < 10 | 11 to 100 | Cc1nocc1-c1ccc2c(=O)n(Cc3cc(F)cc(C(=O)Nc4ccc5c(c4)CNCC5)c3)ccc2c1 [Compound 160] |
| < 10 | 11 to 100 | Cc1nocc1-c1ccc2c(=O)n(Cc3cc(F)cc(C(=O)Nc4ccc5c(c4)CN(C4CC4)CC5)c3)ccc2c1 [Compound 161] |
| < 10 | < 10 | Cc1nocc1-c1ccc2c(=O)n(Cc3cc(F)cc(C(=O)Nc4ccc5c(c4)CCNC5)c3)ccc2c1 [Compound 162] |
| < 10 | < 10 | Cc1nocc1-c1ccc2c(=O)n(Cc3cc(F)cc(C(=O)Nc4ccc5c(c4)CCN(C)C5)c3)ccc2c1 [Compound 163] |
| 10 to 100 | 101 to 500 | Cn1nccc1-c1ccc2c(=O)n(Cc3cc(F)cc(C(=O)N[C@H]4CC[C@H](O)CC4)c3)ccc2c1 [Compound 164] |
| 10 to 100 | 101 to 500 | Cn1nccc1-c1ccc2c(=O)n(Cc3cc(F)cc(C(=O)NC4CCOCC4)c3)ccc2c1 [Compound 166] |
| < 10 | 11 to 100 | Cn1nccc1-c1ccc2c(=O)n(Cc3cccc(C(=O)NCC4CC(O)C4)c3)ccc2c1 (stereo not shown) [Compound 167] |
| < 10 | < 10 | CN1CC(CNC(=O)c2cccc(Cn3ccc4cc(-c5ccnn5C)ccc4c3=O)c2)C1 [Compound 168] |
| < 10 | < 10 | Cn1nccc1-c1ccc2c(=O)n(Cc3cccc(C(=O)NCC4CCNCC4)c3)ccc2c1 [Compound 169] |
| < 10 | 11 to 100 | Cn1nccc1-c1ccc2c(=O)n(Cc3cccc(C(=O)NCC4CCN(CC(F)F)CC4)c3)ccc2c1 [Compound 170] |
| < 10 | 11 to 100 | CN1CCC(CNC(=O)c2cccc(Cn3ccc4cc(-c5ccnn5C)ccc4c3=O)c2)CC1 [Compound 171] |
| < 10 | 11 to 100 | CN1CCC(CNC(=O)c2cc(F)cc(Cn3ccc4cc(-c5ccnn5C)ccc4c3=O)c2)CC1 [Compound 172] |
| < 10 | 11 to 100 | Cn1nccc1-c1ccc2c(=O)n(Cc3cc(F)cc(C(=O)NCC4CCNCC4)c3)ccc2c1 [Compound 173] |
| < 10 | 11 to 100 | Cn1nccc1-c1ccc2c(=O)n(Cc3cc(F)cc(C(=O)NCc4ccc(F)nc4)c3)ccc2c1 [Compound 174] |
| 10 to 100 | 101 to 500 | CC(C)N1CCC(NC(=O)c2cc(F)cc(Cn3ccc4cc(-c5ccnn5C)ccc4c3=O)c2)CC1 [Compound 175] |
| 10 to 100 | 11 to 100 | CN1CCC(NC(=O)c2cc(F)cc(Cn3ccc4cc(-c5ccnn5C)ccc4c3=O)c2)CC1 [Compound 176] |
| < 10 | 11 to 100 | Cn1nccc1-c1ccc2c(=O)n(Cc3cc(F)cc(C(=O)NC4CCNCC4)c3)ccc2c1 [Compound 177] |
| < 10 | 11 to 100 | Cn1ccc(NC(=O)c2cc(F)cc(Cn3ccc4cc(-c5ccnn5C)ccc4c3=O)c2)n1 [Compound 179] |
| 10 to 100 | 101 to 500 | Nc1cc(-c2ccc3c(=O)n(Cc4cccc(C(=O)NCc5ccccc5)c4)ccc3c2)ccn1 [Compound 181] |
| 100 to 500 | > 501 | Nc1cc(-c2ccc3c(=O)n(Cc4cccc(C(=O)NCc5ccc6ccccc6c5)c4)ccc3c2)ccn1 [Compound 182] |
| 10 to 100 | 101 to 500 | NCc1ccccc1CNC(=O)c1cccc(Cn2ccc3cc(-c4ccnc(N)c4)ccc3c2=O)c1 [Compound 183] |
